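Test compounds were applied to cells in 96-well plates for 48 hours at 5 doses. The concentration for 50% growth inhibition is given as GI50.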 Activity calls are given as the source filed them. Rule as the data show it: active = GI50 up to about 1.1 µM and inactive = higher.
Legend:
Assay in all cases: NCI tumour cell line growth inhibition, 48 h
SW-620 = test system: SW-620
SF-539 = test system: SF-539
HCT-116 = test system: HCT-116
TK-10 = test system: TK-10
NCI-H460 = test system: NCI-H460
RXF 393 = test system: RXF 393
PC-3 = test system: PC-3
U-251 = test system: U-251
SF-295 = test system: SF-295
SN12C = test system: SN12C
HCC 2998 = test system: HCC 2998
SR = test system: SR
OVCAR-3 = test system: OVCAR-3
MDA-MB-435 = test system: MDA-MB-435
RPMI-8226 = test system: RPMI-8226
MCF7 = test system: MCF7
LOX IMVI = test system: LOX IMVI
UACC-62 = test system: UACC-62
MOLT-4 = test system: MOLT-4
OVCAR-4 = test system: OVCAR-4

SMILES	GI50 (SW-620)	GI50 (SF-539)	GI50 (HCT-116)	GI50 (TK-10)	GI50 (NCI-H460)	GI50 (RXF 393)	GI50 (PC-3)	GI50 (U-251)	GI50 (SF-295)	GI50 (SN12C)	GI50 (HCC 2998)	GI50 (SR)	GI50 (OVCAR-3)	GI50 (MDA-MB-435)	GI50 (RPMI-8226)	GI50 (MCF7)	GI50 (LOX IMVI)	GI50 (UACC-62)	GI50 (MOLT-4)	GI50 (OVCAR-4)
Cc1ccsc1C(=S)Nc1ccc(Cl)c(/C=N/OC(C)C)c1	34.3 µM (inactive)	> 100 µM (inactive)	27.4 µM (inactive)	65.3 µM (inactive)	32.7 µM (inactive)	20.5 µM (inactive)	80.7 µM (inactive)	36.6 µM (inactive)	30.1 µM (inactive)	32.5 µM (inactive)	22.9 µM (inactive)	16.3 µM (inactive)	44.8 µM (inactive)	49.3 µM (inactive)	14.7 µM (inactive)	15.6 µM (inactive)	29.8 µM (inactive)	64.1 µM (inactive)	11.2 µM (inactive)	14.8 µM (inactive)
CSC1=C(C)C(/C=N/Nc2ccc([N+](=O)[O-])cc2)=C(C)N(c2ccccc2)S1(=O)=O	> 100 µM (inactive)	> 100 µM (inactive)	6.47 µM (inactive)	> 100 µM (inactive)	16.6 µM (inactive)	> 100 µM (inactive)	25.9 µM (inactive)	> 100 µM (inactive)	6.17 µM (inactive)	> 100 µM (inactive)	25.8 µM (inactive)	17.8 µM (inactive)	25.4 µM (inactive)	> 100 µM (inactive)	5.07 µM (inactive)	32.4 µM (inactive)	19.6 µM (inactive)	74.1 µM (inactive)	5.27 µM (inactive)	> 100 µM (inactive)
OCC1OC(NC(=S)NCCC(F)(F)C(F)(F)C(F)(F)C(F)(F)C(F)(F)C(F)(F)F)C(O)C(O)C1O (stereo not given)	> 100 µM (inactive)	> 100 µM (inactive)	80.4 µM (inactive)	> 100 µM (inactive)	> 100 µM (inactive)	75.3 µM (inactive)	43 µM (inactive)	37.3 µM (inactive)	80.9 µM (inactive)	> 100 µM (inactive)	> 100 µM (inactive)	> 100 µM (inactive)	> 100 µM (inactive)	58.6 µM (inactive)	> 100 µM (inactive)	> 100 µM (inactive)	49.5 µM (inactive)	67.9 µM (inactive)	21.6 µM (inactive)	> 100 µM (inactive)
Cc1ccc(O)c(-c2cc(-c3cccc(Br)c3)on2)c1	19.8 µM (inactive)	28.8 µM (inactive)	20 µM (inactive)	21.9 µM (inactive)	29.1 µM (inactive)	17.3 µM (inactive)	45.6 µM (inactive)	17 µM (inactive)	32.4 µM (inactive)	23.8 µM (inactive)	22.4 µM (inactive)	25.1 µM (inactive)	19.1 µM (inactive)	21.7 µM (inactive)	25.2 µM (inactive)	13.2 µM (inactive)	16.3 µM (inactive)	28.6 µM (inactive)	20.8 µM (inactive)	11.6 µM (inactive)
O=C1C=CC(=C(c2ccccc2)c2ccc(O)cc2)C=C1	18.1 µM (inactive)	13.2 µM (inactive)	50.5 µM (inactive)	19.2 µM (inactive)	17.3 µM (inactive)	14.2 µM (inactive)	22.1 µM (inactive)	12.4 µM (inactive)	19.4 µM (inactive)	13.6 µM (inactive)	31.1 µM (inactive)	7.45 µM (inactive)	16.2 µM (inactive)	15.7 µM (inactive)	9.12 µM (inactive)	13.4 µM (inactive)	4.51 µM (inactive)	14.1 µM (inactive)	3.33 µM (inactive)	14.3 µM (inactive)
O=C(CCC(=O)c1ccc(Cl)cc1)NO	> 100 µM (inactive)	> 100 µM (inactive)	> 100 µM (inactive)	> 100 µM (inactive)	> 100 µM (inactive)	> 100 µM (inactive)	> 100 µM (inactive)	> 100 µM (inactive)	> 100 µM (inactive)	> 100 µM (inactive)	> 100 µM (inactive)	> 100 µM (inactive)	> 100 µM (inactive)	> 100 µM (inactive)	> 100 µM (inactive)	> 100 µM (inactive)	> 100 µM (inactive)	> 100 µM (inactive)	> 100 µM (inactive)	> 100 µM (inactive)
COc1ccc2nc3ccc(OC)cc3c([S+]([O-])CCCl)c2c1 (stereo not given)	3.3 µM (inactive)	1.72 µM (inactive)	1.83 µM (inactive)	3.81 µM (inactive)	26.4 µM (inactive)	3.59 µM (inactive)	11.2 µM (inactive)	14.5 µM (inactive)	22.2 µM (inactive)	1.94 µM (inactive)	23.2 µM (inactive)	2.67 µM (inactive)	2.2 µM (inactive)	3.73 µM (inactive)	2.11 µM (inactive)	2.31 µM (inactive)	2.4 µM (inactive)	15.8 µM (inactive)	2.82 µM (inactive)	5.05 µM (inactive)
CCCC[N+](CCCC)(CCCC)CCCC.O=S(=O)([O-])ON=C1c2ccccc2-c2ccccc21	> 100 µM (inactive)	> 100 µM (inactive)	> 100 µM (inactive)	> 100 µM (inactive)	> 100 µM (inactive)	> 100 µM (inactive)	> 100 µM (inactive)	> 100 µM (inactive)	> 100 µM (inactive)	> 100 µM (inactive)	> 100 µM (inactive)	> 100 µM (inactive)	> 100 µM (inactive)	> 100 µM (inactive)	50.8 µM (inactive)	> 100 µM (inactive)	> 100 µM (inactive)	> 100 µM (inactive)	> 100 µM (inactive)	> 100 µM (inactive)
CC1=NN(c2cccc(Cl)c2)C2(C1)SCC(=O)N2c1nc2ccccc2s1 (stereo not given)	32.6 µM (inactive)	22.8 µM (inactive)	17.9 µM (inactive)	30.2 µM (inactive)	21.6 µM (inactive)	17.7 µM (inactive)	23.3 µM (inactive)	27 µM (inactive)	23.2 µM (inactive)	22.1 µM (inactive)	17.9 µM (inactive)	17.9 µM (inactive)	16.2 µM (inactive)	25 µM (inactive)	16.3 µM (inactive)	25.6 µM (inactive)	20.2 µM (inactive)	29.5 µM (inactive)	16.1 µM (inactive)	34 µM (inactive)
CCOC(=O)c1c2c(n(-c3ccc(C)cc3)c1C)-c1ccccc1C(=O)C2(C(=O)OCC)C(=O)OCC	37.1 µM (inactive)	35.8 µM (inactive)	31.4 µM (inactive)	59.2 µM (inactive)	35.5 µM (inactive)	26.5 µM (inactive)	33.7 µM (inactive)	70.1 µM (inactive)	37.9 µM (inactive)	34.4 µM (inactive)	31.4 µM (inactive)	1.31 µM (inactive)	25.3 µM (inactive)	29.1 µM (inactive)	14 µM (inactive)	25.9 µM (inactive)	33.8 µM (inactive)	27.3 µM (inactive)	1.71 µM (inactive)	30.8 µM (inactive)
COc1cccc(C(=O)N[C@@H]2[C@H](O)[C@@H](CO)O[C@H]2n2cnc3c(N)ncnc32)c1	> 100 µM (inactive)	> 100 µM (inactive)	> 100 µM (inactive)	> 100 µM (inactive)	> 100 µM (inactive)	> 100 µM (inactive)	> 100 µM (inactive)	> 100 µM (inactive)	> 100 µM (inactive)	> 100 µM (inactive)	> 100 µM (inactive)	> 100 µM (inactive)	> 100 µM (inactive)	> 100 µM (inactive)	> 100 µM (inactive)	> 100 µM (inactive)	> 100 µM (inactive)	> 100 µM (inactive)	> 100 µM (inactive)	> 100 µM (inactive)
COc1ccc(/C=C2/C(=O)N(C(=O)c3ccccc3O)N=C2C)cc1OC	3.27 µM (inactive)	0.241 µM (active)	0.275 µM (active)	10.8 µM (inactive)	0.34 µM (active)	0.0214 µM (active)	2.37 µM (inactive)	0.202 µM (active)	0.365 µM (active)	2.42 µM (inactive)	> 24.3 µM (inactive)	0.644 µM (active)	0.374 µM (active)	0.355 µM (active)	1.72 µM (inactive)	0.361 µM (active)	0.603 µM (active)	0.147 µM (active)	21.2 µM (inactive)	2.44 µM (inactive)
COc1cc2c(/C=C3/C(=O)Nc4ccccc43)c(Cl)[nH]c2cc1C	0.0855 µM (active)	0.0234 µM (active)	0.0597 µM (active)	0.173 µM (active)	0.0716 µM (active)	0.311 µM (active)	0.0435 µM (active)	0.041 µM (active)	0.0252 µM (active)	0.0845 µM (active)	0.0861 µM (active)	0.0414 µM (active)	0.0434 µM (active)	0.0141 µM (active)	0.0551 µM (active)	0.0502 µM (active)	0.0631 µM (active)	0.0371 µM (active)	0.118 µM (active)	0.0521 µM (active)
CN(C)CCn1c(=O)c2ccc3c4c(nn3CCN(C)C)c3cc([N+](=O)[O-])ccc3n(c1=O)c24	< 0.0134 µM (active)	0.394 µM (active)	< 0.0154 µM (active)	0.212 µM (active)	< 0.0128 µM (active)	0.12 µM (active)	0.0641 µM (active)	0.0281 µM (active)	0.0585 µM (active)	< 0.0207 µM (active)	0.0411 µM (active)	< 0.01 µM (active)	0.0883 µM (active)	0.0675 µM (active)	0.0194 µM (active)	0.0667 µM (active)	0.0447 µM (active)	0.337 µM (active)	< 0.01 µM (active)	0.0189 µM (active)

Source: ChEMBL document CHEMBL1201862, “PubChem BioAssay data set” (2004)
